The text below walks through data of patent publication US20240197761A1, “FUCOSYLATION AND IMMUNE MODULATION IN CANCER” (H. LEE MOFFITT CANCER CENTER AND RESEARCH INSTITUTE, INC., priority 2021, published 2024).

Assay [1] concerns fucosylated HLA-DRB1 in WM793 cells. The assay can be described thus: Lectin-mediated proximity ligation assay (L-PLA) of fucosylated HLA-DRB1. The format is cell-based, human. As to conditions: vs. DMSO. The text has this: FIGS. 22A-221 show Schematic of L-PLA staining and verification of fucosylated HLA-DRB1 staining, which is weakly associated with tumor peripheral CD4+T cells; and the effects of L-fucose on tumor PD-L1 expression (a) Schematic of lectin-mediated proximity ligation analysis (L-PLA) using fucosylated HLA-DRB1 (fuco-HLA-DRB1) as an example. We stained for (i) HLA-DRB1 using […]-HLA-DRB1 followed by (+) oligo-conjugated PLA secondary and (ii) fucosylated glycan using biotinylated (“B”) AAL lectin followed by D-biotin followed by (−) oligo-conjugated PLA secondary. Ligated PLA oligos were subjected to rolling circle amplification PCR (RCA PCR), giving rise to fluorescent punctae. […] Single melanoma marker, AAL-FITC, and HLA-DRB1 channels are shown in white for clearer visualization. […] (d) FFPE melanoma tissues were subjected to L-PLA HLA-DRB1 staining ±500 mM L-fucose wash and subsequent staining with melanoma marker (MART1+SI10 cocktail), and DAPI. Single melanoma marker and fuco-HLA-DRB1 channels are shown in white for clear visualization. Total loss of fuco-HLA-DRB1 signal in the +L-fucose wash tissue confirms the fucose-specificity of L-PLA for fuco-HLA-DRB1. […]
Laboratories (Burlingame, CA)), on coverslips overnight in 4° C. […] Microscopy images were acquired using a Keyence BZ-X710, and images were process and analyzed using FIJI (NIH).

The next assay deals with SW1 tumors. Kind of assay: Anti-PD-1 mouse model, SW1. Type of assay: in vivo, C3H/HeN mice. From the text: FIGS. 21A and 21B Administration of combination L-fucose and anti-PD-1 suppresses tumors and increases intra-tumoral CD4+T central and effector memory cells (a) Volumetric growth curves for SW1 tumors in C3H/HeN mice (left) and SM1 tumors in C57BL/6 mice (right) fed L-fucose (LF) and treated with PBS (control) or anti-PD-1. (concurrent initiation of LF anti-PD1 (▾)). The tumor growth curves are means±SEM from ≥7 mice per group. (b) Volumetric growth curves for SM1 tumors in C57BL/6 mice fed ±L-fucose (LF) and treated with PBS (control) or anti-PD-1 (PD-1). (concurrent initiation of LF±PD1 (▾)). The tumor growth curves are means±SEM from ≥7 mice per group. *=p<0.05. At Day 7 (prior to administration of LF or PD1), Day 21 (endpoint for tumors of control-treated mice), Day 31 (endpoint for tumors of LF-treated mice), Day 63 (endpoint for tumors of PD1-treated mice), the primary tumors (Tumor) and draining lymph nodes (LN) of 4-5 mice per treatment group were analyzed by flow cytometry for intratumor levels of CD4+ and CD8+T subpopulations (naive/terminal, stem central/central/effector memory) and dendritic cell (DC) subpopulations (cDC1, cDC2, and monocyte-derived DC (moDC)) as in FIG. 15. Proportions of CD4+, CD8+, and DC subpopulations in each organ at each timepoints are represented by the color-coded pie charts (each pie chart represents 4-5 mice). […]

`CC(=O)OC1O[C@@H](C)[C@@H](OC(C)=O)[C@@H](OC(C)=O)[C@@H]1F` (some centres unmarked) [FUTi, 2F-peracteyl-fucose, reference compound]: in assay [1], the “L-PLA staining of endogenous fucosylated HLA-DRB1” value was “lost”.

As to `C[C@H](O)[C@@H](O)[C@@H](O)[C@H](O)C=O` [L-fucose], the “efficacy of anti-PD1 in combination with oral L-fuc” value in the assay with SW1 tumors is reported as “did not enhance”.
